This note sets out measurements from US9732094B2, “Arylquinazolines” (Merck Patent GmbH, priority 2013, dated 2017).

Assay [1] deals with DNA-PK phosphorylation at serine 2056 (Homo sapiens (Human), UniProt P78527). Nature of the assay: DNA-PK phosphorylation at serine 2056 (cellular), bleomycin-treated HCT116 cells, ELISA. The settings on record: read-out: IC50 pDNA-PK. Format: cell-based. On the procedure:
HCT116 cells were cultivated at 37° C. and 10% CO2 in MEM alpha medium with 10% of foetal calf serum and 2 mM glutamine. The cells were detached from the base of the culture vessels with the aid of trypsin/EDTA, centrifuged off in centrifuge tubes, taken up in fresh medium, and the cell density was determined. 100,000 cells were sown in 1 ml of culture medium per cavity of a 24-well cell culture plate and cultivated overnight. Next day, 10 μM bleomycin (DNA intercalator and inductor of DNA double-strand breaks) and test substances in fresh culture medium were added to the cells, and these were cultivated for a further six hours. […] The 96-well ELISA plates were subsequently treated with a detection antibody (Abcam ab79444: total DNA-PK) and a streptavidin-HRP conjugate. The development of the enzymatic reaction was carried out with the aid of a chemiluminescent reagent, the chemiluminescence was measured with the aid of a Mithras LB940. The signals with the phospho-DNA-PK-specific antibody were standardised to the signal with the antibody against the total protein DNA-PKc. […] The DMSO control was used as blank.
For orientation: ELISA stands for enzyme-linked immunosorbent assay.

A further assay has as its target DNA-PK (Homo sapiens (Human), UniProt P78527). Nature of the assay: DNA-PK assay (biochemical), flashplate 33P-ATP kinase assay. On the procedure: A) DNA-PK Assay (Biochemical)
The kinase assay was carried out in streptavidin-coated […] microtitre flashplates. […] The reaction was stopped using 50 μl/well of 200 mM EDTA. After incubation for a further 30 min at room temperature, the liquid was removed. Each well was washed three times with 100 μl of 0.9% saline solution. A nonspecific reaction (blank value) was determined using 10 μM of an innate kinase inhibitor. The radioactivity measurement was carried out using a TopCount. IC50 values were calculated in RS1.

Where [2] appears, read: cellular, HCT116 cells, 10 μM bleomycin, six hours.
[3] abbreviates: cellular DNA-PK phosphorylation at serine 2056, HCT116.

Read-outs that look alike come from different tables or passages of the source. Where only a bound is given, the exact number is not on record here.

For the molecule `COc1ccc(C(O)c2cc(-c3ncnc4cc(N5CCOCC5)sc34)c(F)cc2Cl)nn1` (single isomer, unassigned) [Example 127, [2-Chloro-4-fluoro-5-(6-morpholin-4-ylthieno[3,2-d}-pyrimidin-4-yl)-phenyl]-(6-methoxy-pyridazin-3-yl)-methanol], the IC50 in assay [1] (setting [2]) lay within 5000 to 10000 nM; on DNA-PK (enzymatic, 5 μM ATP), 3 to 7 nM.

Consider `c1nc(N2CCCCC2)c2scc(N3CCOCC3)c2n1` [Example 174, 7-Morpholin-4-yl-4-piperidin-1-yl-thieno[3,2-d}-pyrimidine], for which the IC50 in assay [1] (Table 5, HCT116 cells) lay within 10000 to 30000 nM; at DNA-PK (Table 5), 7 to 30 nM.

As for `OC(c1ccc(F)c(-c2ncnc3cc(N4CCOCC4)ccc23)c1)c1nccs1` (stereo not shown) [Example 212, [4-Fluoro-3-(7-morpholin-4-yl-quinazolin-4-yl)-phenyl]thiazol-2-ylmethanol], the IC50 in assay [1] (setting [2]) is 10000 to 30000 nM; at DNA-PK (enzymatic, 5 μM ATP) it was less than 3 nM.

On to `CC(O)(c1cc(-c2ncnc3cc(N4CCOCC4)ccc23)cs1)c1nccs1` (stereo not shown) [Example 156, 1-[4-(7-Morpholin-4-ylquinazolin-4-yl)-thiophen-2-yl]-1-thiazol-2-ylethanol], for which, at DNA-PK (Table 5), the IC50 was greater than 30 nM.

The molecule `CC(O)(c1nccs1)c1cccc(-c2ncnc3cc(N4CCOCC4)ccc23)c1F` (stereo not shown) [Example 162, 1-[2-Fluoro-3-(7-morpholin-4-yl-quinazolin-4-yl)-phenyl]-1-thiazol-2-ylethanol] came in with an IC50 on DNA-PK (Table 5) greater than 30 nM.

As for `OC(c1ccc(F)c(-c2ncnc3cc(N4CCOCC4)ccc23)c1)c1nccnc1I` (stereo not shown) [Example 462, [4-Fluoro-3-(7-morpholin-4-yl-quinazolin-4-yl)-phenyl]-(3-iodo-pyrazin-2-yl)-methanol], the results for the IC50 (in assay [1] (setting [3]); against DNA-PK (biochemical DNA-PK assay)) were less than 500 nM and less than 3 nM, respectively.

For `COC(c1ccc(F)c(-c2ncnc3cc(N4CCOCC4)ccc23)c1)c1nccs1` (stereo not shown) [Example 175, 4-[2-Fluoro-5-(methoxy-thiazol-2-ylmethyl)phenyl]-7-morpholin-4-yl-quinazoline], the IC50 at DNA-PK (Table 5) was greater than 30 nM.

Molecule `Cc1ccc(C(C)(O)c2nccs2)cc1-c1ncnc2cc(N3CCOCC3)ccc12` (stereo not shown) [Example 155, 1-[4-methyl-3-(7-morpholin-4-yl-quinazolin-4-yl)-phenyl)-1-thiazol-2-ylethanol] had an IC50 against DNA-PK (Table 5) greater than 30 nM.

With `Cc1nccnc1C(O)c1cc(-c2ncnc3cc(N4CCOCC4)ccc23)c(F)cc1F` (stereo not shown) [Example 85], the IC50 in assay [1] (setting [2]) is 500 to 5000 nM; at DNA-PK (enzymatic, 5 μM ATP), less than 3 nM.

As for `OC(c1ccc(F)c(-c2ncnc3cc(N4CCOCC4)sc23)c1)c1nccs1` (stereo not shown) [Example 146, [4-fluoro-3-(6-morpholin-4-ylthieno[3,2-d]pyrimidin-4-yl)phenyl]thiazol-2-ylmethanol], the IC50 in assay [1] (Table 5, HCT116 cells) is 500 to 5000 nM.

Molecule `CC(O)(c1cncc(-c2ncnc3cc(N4CCOCC4)ccc23)c1)c1nccs1` (stereo not shown) [Example 151, 1-[5-(7-Morpholin-4-ylquinazolin-4-yl)-pyridin-3-yl]-1-thiazol-2-ylethanol] yielded an IC50 on DNA-PK (Table 5) greater than 30 nM.

Regarding `OC(c1cc(F)cc(-c2ncnc3cc(N4CCOCC4)ccc23)c1)c1nccs1` (stereo not shown) [Example 169, [3-Fluoro-5-(7-morpholin-4-yl-quinazolin-4-yl)-phenyl]thiazol-2-yl-methanol], the IC50 in assay [1] (Table 5, HCT116 cells) is 10000 to 30000 nM; against DNA-PK (Table 5), 7 to 30 nM.

As to `OC(c1cccc(-c2ncnc3cc(N4CCOCC4)ccc23)c1)(c1nccs1)C(F)(F)F` (stereo not shown) [Example 172, 2,2,2-Trifluoro-1-[3-(7-morpholin-4-yl-quinazolin-4-yl)-phenyl]-1-thiazol-2-ylethanol], the IC50 in assay [1] (Table 5, HCT116 cells) was in the range of 10000 to 30000 nM; at DNA-PK (Table 5), 7 to 30 nM.

Turning to `CC(O)(c1cc(-c2ncnc3cc(N4CCOCC4)ccc23)ccn1)c1nccs1` (stereo not shown) [Example 153, 1-[4-(7-Morpholin-4-ylquinazolin-4-yl)-pyridin-2-yl]-1-thiazol-2-ylethanol], the IC50 against DNA-PK (Table 5) is greater than 30 nM.

In the case of `OC(c1cncc(-c2ncnc3cc(N4CCOCC4)ccc23)c1)c1nccs1` (stereo not shown) [Example 183, [5-(7-Morpholin-4-ylquinazolin-4-yl)-pyndin-3-yl]thiazol-2-ylmethanol], the IC50 at DNA-PK (Table 5) was 7 to 30 nM.

`OC(c1csc(-c2ncnc3cc(N4CCOCC4)ccc23)c1)c1nccs1` (stereo not shown) [Example 164, [5-(7-Morpholin-4-ylquinazolin-4-yl)-thiophen-3-yl]-thiazol-2-yl-methanol]: the IC50 at DNA-PK (Table 5) is greater than 30 nM.

For the molecule `OC(c1cccnn1)c1cc(-c2ncnc3cc(N4CCOCC4)ccc23)c(F)cc1Cl` (single isomer, unassigned) [Example 30, [2-Chloro-4-fluoro-5-(7-morpholin-4-yl-quinazolin-4-yl)phenyl]-pyridazin-3-ylmethanol], the IC50 was less than 500 nM in assay [1] (setting [2]) and less than 3 nM on DNA-PK (enzymatic, 5 μM ATP).

Turning to `OC(c1cc(-c2ncnc3cc(N4CCOCC4)ccc23)c(F)cc1F)c1ncnc2ccoc12` (stereo not shown) [Example 446, [2,4-Difluoro-5-(7-morpholin-4-yl-quinazolin-4-yl)-phenyl]furo[3,2-d}-pyrimidin-4-yl-methanol], the IC50 in assay [1] (setting [3]) is 500 to 5000 nM; at DNA-PK (biochemical DNA-PK assay), less than 3 nM.

Consider `OC(c1ccc(F)c(-c2ncnc3cc(N4CCOCC4)ccc23)c1)c1nccs1` (stereo not shown) [Example 213, [4-Fluoro-3-(7-morpholin-4-yl-quinazolin-4-yl)-phenyl]thiazol-2-ylmethanol], for which the IC50 was 5000 to 10000 nM in assay [1] (setting [2]) and less than 3 nM at DNA-PK (enzymatic, 5 μM ATP).

Regarding `COc1nccnc1C(O)c1cc(-c2ncnc3cc(N4CCOCC4)cc(F)c23)c(F)cc1Cl` (stereo not shown) [Example 250, [2-Chloro-4-fluoro-5-(5-fluoro-7-morpholin-4-yl-quinazolin-4-yl)-phenyl]-(3-methoxy-pyrazin-2-yl)-methanol], in assay [1] (setting [3]), the IC50 was less than 500 nM.

For the molecule `OC(c1cccc(-c2ncnc3cc(N4CCOCC4)sc23)c1)c1nccs1` (stereo not shown) [Example 182, [3-(6-Morpholin-4-ylthieno[3,2-d}-pyrimidin-4-yl)-phenyl]thiazol-2-yl-methanol], the IC50 in assay [1] (Table 5, HCT116 cells) lay within 5000 to 10000 nM; against DNA-PK (Table 5), 7 to 30 nM.

Turning to `COc1nccnc1C(O)c1ccc(F)c(-c2ncnc3cc(N4CCOCC4)cc(F)c23)c1` (single isomer, unassigned) [Example 253, [4-Fluoro-3-(5-fluoro-7-morpholin-4-yl-quinazolin-4-yl)-phenyl]-(3-methoxy-pyrazin-2-yl)-methanol], the IC50 lay within 5000 to 10000 nM in assay [1] (setting [3]) and 7 to 30 nM against DNA-PK (biochemical DNA-PK assay).

For `Cn1cnc2ncnc(C(O)c3cc(-c4ncnc5cc(N6CCOCC6)ccc45)c(F)cc3F)c21` (stereo not shown) [Example 386, [2,4-Difluoro-5-(7-morpholin-4-yl-quinazolin-4-yl)-phenyl]-(7-methyl-7H-purin-6-yl)-methanol], the figures for the IC50 (in assay [1] (setting [3]); on DNA-PK (biochemical DNA-PK assay)) were 5000 to 10000 nM and 3 to 7 nM, respectively.

As to `COc1nccnc1C(O)c1cc(-c2ncnc3cc(N4CCOCC4)cc(F)c23)c(F)cc1Cl` (stereo not shown) [Example 266, [2-Chloro-4-fluoro-5-(5-fluoro-7-morpholin-4-yl-quinazolin-4-yl)-phenyl]-(3-methoxy-pyrazin-2-yl)-methanol], in assay [1] (setting [3]), the 50% inhibitory concentration (IC50) was less than 500 nM.

As to `OC(c1cc(-c2ncnc3cc(N4CCOCC4)ccc23)c(F)cc1F)c1ncnc2ccoc12` (stereo not shown) [Example 445, [2,4-Difluoro-5-(7-morpholin-4-yl-quinazolin-4-yl)-phenyl]furo[3,2-d}-pyrimidin-4-yl-methanol], the IC50 in assay [1] (setting [3]) was less than 500 nM; on DNA-PK (biochemical DNA-PK assay), 3 to 7 nM.

Consider `Cn1cnc2ncnc(C(O)c3cc(-c4ncnc5cc(N6CCOCC6)ccc45)c(F)cc3F)c21` (stereo not shown) [Example 431, [2,4-Difluoro-5-(7-morpholin-4-yl-quinazolin-4-yl)-phenyl]-(7-methyl-7H-purin-6-yl)-methanol], for which the values for the IC50 (in assay [1] (setting [3]); against DNA-PK (biochemical DNA-PK assay)) were 500 to 5000 nM and 7 to 30 nM, respectively.

Take `OC(c1ccc(-c2ncnc3cc(N4CCOCC4)ccc23)s1)c1nccs1` (stereo not shown) [Example 160, [5-(7-Morpholin-4-ylquinazolin-4-yl)-thiophen-2-yl]-thiazol-2-yl-methanol]: the IC50 against DNA-PK (Table 5) is greater than 30 nM.

On to `OC(c1nccs1)c1cc(-c2ncnc3cc(N4CCOCC4)ccc23)ccc1F` (stereo not shown) [Example 170, [2-Fluoro-5-(7-morpholin-4-yl-quinazolin-4-yl)-phenyl]thiazol-2-yl-methanol], for which the IC50 in assay [1] (Table 5, HCT116 cells) lay in the range of 5000 to 10000 nM; at DNA-PK (Table 5), 7 to 30 nM.

Molecule `OC(c1cncc(-c2ncnc3cc(N4CCOCC4)ccc23)c1)c1nccs1` (stereo not shown) [Example 184, [5-(7-Morpholin-4-ylquinazolin-4-yl)-pyridin-3-yl]thiazol-2-ylmethanol] yielded an IC50 on DNA-PK (Table 5) of 7 to 30 nM.

For `COC(c1ccc(F)c(-c2ncnc3cc(N4CCOCC4)ccc23)c1)c1nccs1` (stereo not shown) [Example 176, 4-[2-Fluoro-5-(-methoxy-thiazol-2-ylmethyl)phenyl]-7-morpholin-4-yl-quinazoline], on DNA-PK (Table 5), the IC50 lay within 7 to 30 nM.

The IC50 is the point on the concentration scale where inhibition reaches its midpoint.
